Source: US5994323A (priority 1997, dated 1999)

Experiments:
zinc precipitated Aβ [1] = assay: Chelating ability: washing of zinc-aggregated synthetic Aβ on nylon membrane, anti-Aβ 6E10 / ECL; format: biochemical; details: 10 ng synthetic Aβ aggregated with 25 μM ZnCl; wash with TBS containing 2 μM chelator; 100% for TBS alone
Method: Samples of 10 ng synthetic Aβ were placed in microtitre wells and caused to aggregate by the addition of 25 μM ZnCl. The aggregates were then transferred to a 0.2 μm nylon membrane by filtration. […] The membrane was fixed, probed with the anti Aβ monoclonal antibody 6E10 and developed for exposure to ECL-film. The transmittance of the ECL-film was measured and the relative signal strength calculated based on 100% for TBS alone.

[2] = 1H NMR study of the interaction of vitamin B12 with clioquinol glucuronide; format: binding; details: 2.6 mM vitamin B12 + 10 mM clioquinol glucuronide, buffered water pH 6.5, 20° C.
Method: Three different solutions were prepared and their ^1 H NMR spectra were recorded in a DRX 400 MHz spectrophotometer at 20° C. Solution a) contained free vitamin B12 (hydroxycobalamin) in a concentration of 2.6 mM.
In FIGS. 1A-1C the spectra of the three solutions a, b and c are presented for the aromatic region (5.5-9.8 ppm). The differences are quite small but obvious in the expansion shown of FIGS. 2A-2C and FIGS. 3B-3C respectively.

[3] = Solubility in water / aqueous solutions; format: physicochemical
[4] = Dissolution of clioquinol in n-decane and partition into PBS pH 7.4; format: physicochemical
Method: The resolubilization of amyloid aggregates by clioquinol was studied. […] The undissolved material was allowed to settle. […] 100 ml of the (light yellow) supernatant was agitated together with 100 ml of PBS pH 7.4 and the phases allowed to separate. The PBS (lower phase) was collected and filtered to remove the residue which formed at the phase interface upon extraction with the organic solvent.

[5] = tested on: vitamin B12 ([57Co]-cyanocobalamine); assay: Influence of clioquinol on vitamin B12 in vivo: tissue radioactivity after [57Co]-cyanocobalamine injection; details: mice, clioquinol 50 mg/kg/day injected for three days, then [57Co]-cyanocobalamine, sacrificed after two days, ±SEM
Method: After three days, all of the mice were injected with [^57 Co]-cyanocobalamine. After two days, the animals were sacrificed, and the brain, liver and kidney were dissected and counted in a gamma-counter as thousand cpm/g tissue (wet weight)±SEM. The radioactivities in each of the groups are stated in Table 1 below: […]

[6] = injected preparations, dosages of 10-20 mg/kg; cited from earlier work
zinc precipitated Aβ [7] = assay: Resolubilization of zinc-aggregated Aβ in TBS; format: biochemical; details: 2.5 μM Aβ in TBS pH 7.4, 30 μM zinc (43% in solution), then 120 μM clioquinol; 95% soluble before zinc
Method: The ability of clioquinol to resolubilize zinc-aggregated Aβ was assessed. A 2.5 μM solution of Aβ in TBS at a pH of 7.4 was prepared. 95% of the Aβ was maintained in a soluble state.

Aβ = assay: Resolubilization of amyloid aggregates in Alzheimer's disease brain homogenates (Western blot of supernatants); format: biochemical, human; details: frontal lobe neocortex, clioquinol/PBS at 100%, 10% and 1% (100%=800 nM)
Method: Brain specimens were obtained for which a histopathological diagnosis of Alzheimer's disease was confirmed.
The homogenates were centrifuged at 150,000 xg for thirty minutes and the supernatants collected and held on ice (fraction "S"). The pellets were subjected to an identical homogenization and centrifugation regime and the resulting supernatants again collected (fraction "P").
1 ml of each supernatant was treated with 200 μl of ice cold 10% TCA to precipitate total protein including Aβ. The resulting pellet was washed once with 100% ethanol and resuspended in 100 μl of TBS (tris 20 mM, NaCl 150 mM, pH 7.4).
7.5 μl of sample (S or P) was boiled for 5 min. with an equal volume of tris-tricine sample buffer containing 4% SDS and loaded onto a Novex pre-cast 10-20% tris-tricine gel followed by Western transfer onto nitrocellulose. Signal for Aβ was detected using mAb WO2 (raised against residues 5-16 of Aβ) and visualized using ECL. The sensitivity of the detection system is 5-10 pg. […]

[8] = assumed value; 1:1 mixtures of decane/clioquinol with PBS pH 7.4; cited from earlier work

| SMILES | Relative signal strength of Aβ remaining on membrane (zinc precipitated Aβ [1]) [%] | Interaction with vitamin B12 (shift of 1H NMR resonances) [2] | Solubility in water / aqueous solutions [3] | Fraction of clioquinol dissolved in n-decane ([4]; 5.3 g suspended in 200 ml n-decane) [%] | Concentration of clioquinol in the PBS ([4]; PBS pH 7.4 extract of the n-decane supernatant, calculated from assumed 2% dissolution and partitioning coefficient) [nM] | Radioactivity in brain ([5]; control 9.4 ± 0.9) | Radioactivity in liver ([5]; control 97 ± 8) | Radioactivity in kidney ([5]; control 895 ± 207) | Concentration in the brain [6] [μl/ml] | Soluble Aβ after addition to zinc precipitated Aβ (zinc precipitated Aβ [7]) [%] | Solubilization of Aβ from Alzheimer's disease brain homogenate (Aβ) | Partitioning coefficient with PBS [8] |
| --- | --- | --- | --- | --- | --- | --- | --- | --- | --- | --- | --- | --- |
| O=C(O)CN(CCN(CC(=O)O)CC(=O)O)CC(=O)O [EDTA] | 66 | – | – | – | – | – | – | – | – | – | – | – |
| COC(=O)[C@H]1O[C@@H](Oc2c(I)cc(Cl)c3cccnc23)[C@H](OC(C)=O)[C@@H](OC(C)=O)[C@@H]1OC(C)=O [clioquinol glucuronide, methyl (5-chloro-7-iodo-quinolyl-2',3',4'tri-O-acetyl-glucopyranosid)uronate] | – | interaction | soluble in water | – | – | – | – | – | – | – | – | – |
| Oc1c(I)cc(Cl)c2cccnc12 [clioquinol, 5-chloro-7-iodo-8 hydroxyquinoline] | – | – | cannot be dissolved in aqueous solutions | 2 | 800 | 8.4 ± 1.5 thousand cpm/g tissue (wet wei | 85 ± 21 thousand cpm/g tissue (wet wei | 252 ± 61 thousand cpm/g tissue (wet wei | ~20 | 70 | effective in promoting the solubilization of Aβ | 1/1750 |
